In experiment [1] the test system is RBL-2H3 cells. Briefly: β-Hexosaminidase release assay. Type of experiment: cell-based, rat. The note with it: 15 min. How it is done: RBL-2H3 cells were plated into 24-well culture dishes at a cell density of 2 × 10^5 cells per well, or into 6-well culture dishes at a cell density of 9 × 10^5 cells per well, for 1 day at 37 °C in 5% CO2 atmosphere. After 1 day, RBL-2H3 cells were stimulated with SP (10 μM) or vehicle (water) and incubated for 15 min at 37 °C in 5% CO2 atmosphere.
SP-stimulated RBL-2H3 cells (2 × 10^5 cells/well) were treated with PEA (0.1, 0.5, 1, and 10 μM) or vehicle (methanol, max 0.1%) for 15 min at 37 °C in 5% CO2 atmosphere. After 15 min, the supernatants (15 μl) were transferred to 96-well plates and incubated with 60 μl of substrate (1 mM p-nitrophenyl-N-acetyl-β-D-glucosaminide in citrate 0.05 M, pH 4.5) for 1 h at 37 °C. To determine the total amount of released β-hexosaminidase, the cells were lysed with 0.1% Triton X-100 and incubated with substrate using the same procedure as for the determination of the activity in the supernatants. The reaction was stopped by adding 150 μl of 0.1 M sodium bicarbonate buffer (pH 10.0), and the reaction product was monitored by measuring the optical density (OD) at 405 nm by using a reader GENios Pro (Tecan). The results were expressed as % of the total β-hexosaminidase content of the cells determined by cell lysis with 0.1% Triton X-100, and calculated by using the following formula: % degranulation = [ODsupernatant/(ODsupernatant + ODtriton x−100)] × 100.

Experiment [2] concerns RBL-2H3 cells. Put plainly: Quantitative real-time PCR of PEA/2-AG receptors and metabolic enzymes. The note with it: cells stimulated 15 min with SP 10 μM or PEA 10 μM or both, vs unstimulated. Type of experiment: cell-based, rat. The source says: The mRNA expression of PEA target genes (Cnr1, Cnr2, Trpv1, Ppara, and Gpr55), as well as PEA and 2-AG biosynthetic (N-acyl phosphatidylethanolamine-specific phospholipase D, Napepld, Dagla and Daglb) and catabolic enzyme genes (fatty acid amide hydrolase, Faah; N-acylethanolamine-hydrolyzing acid amidase, Naaa; and monoacylglycerol lipase, Mgl), was studied by comparison of transcriptional expression in unstimulated RBL-2H3 cells (plated on 100 mm diameter Petri dishes) vs. the expression of these targets and enzymes in RBL-2H3 cells treated with PEA (10 μM), or stimulated with SP (10 μM) in the presence and absence of PEA (10 μM), for 15 min at 37 °C in 5% CO2 atmosphere. Total RNA was purified, quantified and reverse transcribed as previously reported. For each target, all mRNA sequences were aligned and common primers were designed (Table 1). Quantitative real-time PCR was performed by an iCycler-iQ5 in a 20 μl reaction mixture using 20 ng of cDNA. Assays were performed in quadruplicate (maximum ΔCt of replicate samples < 0.5). Optimized primers for SYBR-green analysis and optimum annealing temperatures were designed by the Allele-Id software version 7.0 (Biosoft International) and were synthesized (HPLC-purification grade) by MWG-Biotech. […] Results were expressed as fold expression compared with a reference condition (2^^−∆∆ct formula).
On the technique in general: Quantitative PCR measures a nucleic acid by following its amplification.

Another experiment deals with MGL. Put plainly: MGL enzyme activity assay (COS-7 cytosolic fractions). Type of experiment: biochemical. The note with it: up to 25 μM. As to the method:
The 10,000×g cytosolic fractions obtained from COS-7 cells (100 μg of protein) were incubated with 2-arachidonoyl-[^3H]-glycerol (40 Ci/mmol, St. Louis, MO, USA) diluted with non-radiolabeled 2-AG (20 μM) in the presence of vehicle or increasing concentrations of PEA (0.1-25 μM), in Tris-HCl 50 mM pH 7.4 at 37 °C for 20 min [42]. After the incubation, the amounts of [^3H]-glycerol were measured in the aqueous phase [after extraction of the incubation mixture with 2 volumes of CHCl3/CH3OH (1:1, v/v)] by using Liquid Scintillation Analyzer (TRI-carb 2100TR).

In a further experiment the target is T1, DAGL-β (Rattus norvegicus, UniProt P0C1S9).
T1 construct: constitutive DAGL-β activity in RBL-2H3 cell membranes; endogenous in cells; host or cells: RBL-2H3
T1 sequence (P0C1S9 1-668): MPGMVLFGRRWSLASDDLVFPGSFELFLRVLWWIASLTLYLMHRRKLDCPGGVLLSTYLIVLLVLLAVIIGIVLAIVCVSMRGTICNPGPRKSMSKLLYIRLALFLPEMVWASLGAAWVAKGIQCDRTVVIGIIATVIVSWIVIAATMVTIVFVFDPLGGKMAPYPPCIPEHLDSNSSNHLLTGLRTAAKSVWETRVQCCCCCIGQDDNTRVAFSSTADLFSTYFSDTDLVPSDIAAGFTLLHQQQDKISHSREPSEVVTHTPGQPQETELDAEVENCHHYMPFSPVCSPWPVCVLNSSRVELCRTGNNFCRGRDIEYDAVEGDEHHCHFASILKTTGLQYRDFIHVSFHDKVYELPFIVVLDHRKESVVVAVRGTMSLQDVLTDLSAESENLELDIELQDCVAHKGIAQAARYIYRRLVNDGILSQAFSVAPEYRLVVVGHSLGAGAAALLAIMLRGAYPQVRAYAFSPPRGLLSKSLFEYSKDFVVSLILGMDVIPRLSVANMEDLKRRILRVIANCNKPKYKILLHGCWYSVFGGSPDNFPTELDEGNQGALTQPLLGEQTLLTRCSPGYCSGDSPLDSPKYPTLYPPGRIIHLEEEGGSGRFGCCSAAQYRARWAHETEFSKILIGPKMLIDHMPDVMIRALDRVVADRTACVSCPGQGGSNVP
Put plainly: DAGL-β enzyme activity assay (RBL-2H3 cell membranes). Type of experiment: biochemical. The note with it: 25 μM. How it is done:
DAGL-β enzyme activity was assessed by using membrane preparations (100 μg of protein) obtained from RBL-2H3 cells, and 1-[^14C]oleoyl-2-arachidonoylglycerol (1.0 mCi/mmol, 50 μM, [40, 41]), as substrate in the presence of vehicle or increasing concentrations of PEA (1–25 μM) in Tris-HCl 50 mM pH 7.4 or in Tris-HCl 50 mM pH 7.4 and CaCl2 10 mM. After the incubation (20 min at 37 °C), the protocol followed the same procedures as above reported for DAGL-α enzyme activity assay. Data were expressed as % of activity of DAGL-β.

As for `CCCCCCCCCCCCCCCC(=O)NCCO` [PEA, Palmitoylethanolamide], the β-hexosaminidase release entry in the experiment with RBL-2H3 cells [1] (SP (10 μM)-stimulated cells, PEA 0.1, 0.5, 1 and 10 μM, concentration-dependent, vs SP + vehicle) is “strongly reduced”. In the experiment on RBL-2H3 cells [1] (substance alone 10 μM, vs vehicle-treated cells), the β-hexosaminidase release result is given as “No effect”. Besides, the “mRNA expression of Cnr2, Napepld, Naaa, Daglb, Faah and Mgl” value in the experiment with RBL-2H3 cells [2] was “no statistically significant change”. Also, in the experiment on MGL, the “inhibitory effect on MGL activity” value was “no inhibitory effect” and the “maximal % inhibition of MGL activity” value is given as < 5%. At DAGL-β, the “stimulation of the activity of DAGL-β” value was 33 ± 5.43%.

Source of the values: PMC6933707, “Palmitoylethanolamide counteracts substance P-induced mast cell activation in vitro by stimulating diacylglycerol lipase activity” (Journal of Neuroinflammation, 2019).
